# Measured values as given in patent publication US20030215462A1, “Use of UGT inhibitors to increase bioavailability” (priority 2001, published 2003).
# Values joined by “and” are separate entries in the source; they are usually repeats but may differ in a detail not shown here. Equal entries are not always repeated.
# How the values were obtained:
# [1] = tested on: UGT enzymes of human liver microsomes; assay: Inhibition of raloxifene glucuronidation (G1, G2) in human liver microsomes; format: biochemical; settings: for % of control metabolism (SD, n = 3), raloxifene glucuronide G1 / % of control metabolism (SD, n = 3), raloxifene glucuronide G2: human liver microsomes 250 μg/ml, 15 min
# Source text: Compounds were eluted using a binary solvent gradient system. […] Solvent B was methanol. […] Detection was at 280 nm.
# UGT1A3 = biological target: T1, UGT1A3 (Homo sapiens, UniProt P35503); assay: Inhibition of raloxifene glucuronidation by recombinant UGT1A3 Supersomes; settings: for activity at 15 min, 10 µM / activity at 15 min, 25 µM / activity at 15 min, 50 µM: human; for activity at 15 min, 10 µM: inhibitor 10 μM; for activity at 15 min, 25 µM: inhibitor 25 μM; for activity at 15 min, 50 µM: inhibitor 50 μM
# T1 sequence (P35503 29-534): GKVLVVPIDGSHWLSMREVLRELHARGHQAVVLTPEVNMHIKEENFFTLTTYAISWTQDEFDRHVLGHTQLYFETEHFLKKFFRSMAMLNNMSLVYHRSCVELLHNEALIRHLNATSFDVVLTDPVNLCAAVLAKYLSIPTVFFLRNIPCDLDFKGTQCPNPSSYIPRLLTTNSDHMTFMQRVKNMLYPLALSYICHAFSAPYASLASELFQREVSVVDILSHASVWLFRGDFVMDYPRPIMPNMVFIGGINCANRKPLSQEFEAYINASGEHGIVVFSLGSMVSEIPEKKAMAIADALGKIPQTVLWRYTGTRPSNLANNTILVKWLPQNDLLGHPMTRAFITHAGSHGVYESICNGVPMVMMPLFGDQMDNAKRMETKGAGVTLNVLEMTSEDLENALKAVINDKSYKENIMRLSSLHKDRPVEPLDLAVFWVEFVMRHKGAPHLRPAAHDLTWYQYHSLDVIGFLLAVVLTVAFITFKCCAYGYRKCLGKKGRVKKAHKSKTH
# Experimental: Compounds were eluted using a binary solvent gradient system. Solvent A was water brought to pH 8 with NH4OH. Solvent B was methanol. Solvent flow rate was 1 ml/min and the column temperature was maintained at 50° C. Detection was at 280 nm. […] The system was then returned to the initial conditions and equilibrated for 3 min.
# [2] = biological target: T2, UGT enzymes of human liver microsomes (Homo sapiens, UniProt P16662); assay: Inhibition of zidovudine glucuronidation in human liver microsomes; format: biochemical; settings: liver lot 062101
# T2 construct: residual metabolism (percentage of control), zidovudine glucuronidation; other: liver lot 062101; residual metabolism (percentage of control), zidovudine glucuronidation; residual metabolism (percentage of control)
# T2 sequence (P16662 1-529): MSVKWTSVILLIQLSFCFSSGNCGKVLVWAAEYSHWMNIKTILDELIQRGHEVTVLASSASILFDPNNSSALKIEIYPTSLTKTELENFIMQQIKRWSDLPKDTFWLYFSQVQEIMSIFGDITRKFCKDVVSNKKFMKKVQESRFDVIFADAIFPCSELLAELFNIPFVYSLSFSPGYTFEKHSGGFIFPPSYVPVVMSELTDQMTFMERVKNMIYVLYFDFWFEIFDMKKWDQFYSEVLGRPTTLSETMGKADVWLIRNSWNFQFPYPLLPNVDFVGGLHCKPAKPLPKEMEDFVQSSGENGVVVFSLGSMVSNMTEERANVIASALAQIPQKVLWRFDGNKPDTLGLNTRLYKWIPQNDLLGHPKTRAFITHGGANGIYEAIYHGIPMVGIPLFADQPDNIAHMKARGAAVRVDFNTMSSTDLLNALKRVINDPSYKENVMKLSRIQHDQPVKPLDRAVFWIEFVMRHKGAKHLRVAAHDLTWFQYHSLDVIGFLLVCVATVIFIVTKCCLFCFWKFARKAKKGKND
# Experimental: Compounds were eluted using a binary solvent gradient system where solvent A was dilute phosphoric acid (pH 3) and solvent B was acetonitrile.
# Standardized incubations utilized 500 μM zidovudine substrate, 1 mg/ml microsomal protein, 5 mM UDPGA and a 30 min incubation time. […] Int.
# [3] = tested on: T3, UGT enzymes of human liver microsomes; assay: Inhibition of 7-HFC glucuronidation in human liver microsomes; format: biochemical; settings: for % of control metabolism (SD, n = 3), 7-HFC glucuronidation: 7-HFC 50 μM, human liver microsomes 100 μg/ml, 15 min
# T3 construct: percentage of control metabolism, 7-HFC glucuronidation; percentage of control metabolism, 7-HFC glucuronidation
# UGT1A9 = biological target: T4, UGT1A9 (Homo sapiens, UniProt O60656); assay: Inhibition of raloxifene glucuronidation by recombinant UGT1A9 Supersomes; settings: for activity at 15 min, 10 µM / activity at 15 min, 25 µM / activity at 15 min, 50 µM: human, Supersomes with recombinant human UGT1A9, pH 7.5, probe raloxifene 50 μM; for Inhibition of raloxifene glucuronidation, UGT1A9, second line per inhibitor (G2): second line (G2, metabolite not given), raloxifene 50 μM, 250 μg/ml Supersomes, 1 mM UDPGA, 15 min
# T4 sequence (O60656 26-530): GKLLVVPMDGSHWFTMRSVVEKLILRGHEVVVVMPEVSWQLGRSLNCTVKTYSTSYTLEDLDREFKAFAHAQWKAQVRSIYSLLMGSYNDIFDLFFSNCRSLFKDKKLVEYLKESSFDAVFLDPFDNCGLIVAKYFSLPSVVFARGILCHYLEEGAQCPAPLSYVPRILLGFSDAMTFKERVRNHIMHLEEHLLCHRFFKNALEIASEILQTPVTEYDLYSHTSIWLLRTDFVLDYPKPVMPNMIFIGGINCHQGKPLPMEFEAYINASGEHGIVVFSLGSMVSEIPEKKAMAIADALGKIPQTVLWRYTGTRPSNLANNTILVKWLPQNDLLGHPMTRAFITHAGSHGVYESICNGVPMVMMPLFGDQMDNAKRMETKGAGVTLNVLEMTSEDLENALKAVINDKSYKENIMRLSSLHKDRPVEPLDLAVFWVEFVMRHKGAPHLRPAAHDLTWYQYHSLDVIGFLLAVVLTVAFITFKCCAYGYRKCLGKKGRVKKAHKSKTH
# [4] = inhibitor 2 μM, raloxifene 50 μM
# [5] = inhibitor 5 μM, raloxifene 50 μM
# [6] = inhibitor 10 μM, raloxifene 50 μM
# [7] = inhibitor 25 μM, raloxifene 50 μM
# [8] = inhibitor 50 μM, raloxifene 50 μM
# [9] = inhibitor 100 μM, raloxifene 50 μM
# [10] = inhibitor 500 μM, raloxifene 50 μM
# [11] = liver lot 032101, inhibitor 50 μM
# [12] = liver lot 062101, inhibitor 50 μM
# [13] = liver lot 083000, inhibitor 50 μM
# [14] = raloxifene 50 μM, inhibitor 10 μM
# [15] = raloxifene 50 μM, inhibitor 25 μM
# [16] = raloxifene 50 μM, inhibitor 50 μM
# [17] = raloxifene 50 μM, inhibitor 100 μM
# [18] = Supersomes with recombinant human UGT1A3, pH 7.5, probe raloxifene 50 μM, formation of glucuronide G1, % of control metabolism, raloxifene G1, UGT1A3
# [19] = Supersomes with recombinant human UGT1A3, pH 7.5, probe raloxifene 50 μM, formation of glucuronide G2, % of control metabolism, raloxifene G2, UGT1A3
# [20] = recombinant UGT1A3 Supersomes, pH 7.5, probe raloxifene 50 μM (formation of glucuronide G1), Inhibition of raloxifene glucuronidation, G1, UGT1A3, G1, raloxifene 50 μM, 250 μg/ml Supersomes, 1 mM UDPGA, 15 min
# [21] = recombinant UGT1A3 Supersomes, pH 7.5, probe raloxifene 50 μM (formation of glucuronide G2), Inhibition of raloxifene glucuronidation, G2, UGT1A3, G2, raloxifene 50 μM, 250 μg/ml Supersomes, 1 mM UDPGA, 15 min
compound,measurement,setting,value
O=c1c(O)c(-c2ccc(O)c(O)c2)oc2cc(O)cc(O)c12 [Quercetin],"% of control metabolism (SD, n = 3), raloxifene glucuronide G1",[1]; [4],82 (6) %
same,"% of control metabolism (SD, n = 3), raloxifene glucuronide G1",[1]; [5],69 (1) %
same,"% of control metabolism (SD, n = 3), raloxifene glucuronide G1",[1]; [6],48 (1) %
same,"% of control metabolism (SD, n = 3), raloxifene glucuronide G1",[1]; [7],18 (1) %
same,"% of control metabolism (SD, n = 3), raloxifene glucuronide G1",[1]; [8],8 (1) %
same,"% of control metabolism (SD, n = 3), raloxifene glucuronide G1",[1]; [9],6 (2) %
same,"% of control metabolism (SD, n = 3), raloxifene glucuronide G1",[1]; [10],0 (0) %
same,"% of control metabolism (SD, n = 3), raloxifene glucuronide G2",[1]; [4],78 (3) %
same,"% of control metabolism (SD, n = 3), raloxifene glucuronide G2",[1]; [5],67 (2) %
same,"% of control metabolism (SD, n = 3), raloxifene glucuronide G2",[1]; [6],50 (1) %
same,"% of control metabolism (SD, n = 3), raloxifene glucuronide G2",[1]; [7],25 (1) %
same,"% of control metabolism (SD, n = 3), raloxifene glucuronide G2",[1]; [8],15 (1) %
same,"% of control metabolism (SD, n = 3), raloxifene glucuronide G2",[1]; [9],13 (2) %
same,"% of control metabolism (SD, n = 3), raloxifene glucuronide G2",[1]; [10],0 (0) %
same,"% of control metabolism, raloxifene G1",[1]; [11],25 (1) %
same,"% of control metabolism, raloxifene G2",[1]; [11],35 (1) %
same,"% of control metabolism, raloxifene G1",[1]; [12],34 (3) %
same,"% of control metabolism, raloxifene G2",[1]; [12],35 (3) %
same,"% of control metabolism, raloxifene G1",[1]; [13],8 (1) %
same,"% of control metabolism, raloxifene G2",[1]; [13],15 (1) %
same,"% of control metabolism, raloxifene G1",[1]; [14],48 (1) %
same,"% of control metabolism, raloxifene G2",[1]; [14],50 (1) %
same,"% of control metabolism, raloxifene G1",[1]; [15],18 (1) %
same,"% of control metabolism, raloxifene G2",[1]; [15],25 (1) %
same,"% of control metabolism, raloxifene G1",[1]; [16],8 (1) %
same,"% of control metabolism, raloxifene G2",[1]; [16],15 (1) %
same,"% of control metabolism, raloxifene G1",[1]; [17],6 (2) %
same,"% of control metabolism, raloxifene G2",[1]; [17],13 (2) %
same,"inhibition of raloxifene glucuronidation, in words",UGT1A3; UGT1A3,good inhibitor
same,"activity at 15 min, 10 µM",UGT1A3; [18],81%
same,"activity at 15 min, 25 µM",UGT1A3; [18],53%
same,"activity at 15 min, 50 µM",UGT1A3; [18],28%
same,"activity at 15 min, 10 µM",UGT1A3; [19],56%
same,"activity at 15 min, 25 µM",UGT1A3; [19],49%
same,"activity at 15 min, 50 µM",UGT1A3; [19],25%
same,"activity at 15 min, 10 µM",UGT1A3; [20],72%
same,"activity at 15 min, 25 µM",UGT1A3; [20],52%
same,"activity at 15 min, 50 µM",UGT1A3; [20],28%
same,"activity at 15 min, 10 µM",UGT1A3; [21],73%
same,"activity at 15 min, 25 µM",UGT1A3; [21],49%
same,"activity at 15 min, 50 µM",UGT1A3; [21],25%
same,"residual metabolism (percentage of control), zidovudine glucuronidation",[2]; inhibitor 100 μM,94 (8) %
same,"residual metabolism (percentage of control), zidovudine glucuronidation",[2]; inhibitor 200 μM,64 (4) %
same,"percentage of control metabolism, 7-HFC glucuronidation",[3]; inhibitor 100 μM,58 (1) %
same,"% of control metabolism (SD, n = 3), 7-HFC glucuronidation",[3]; inhibitor 100 μM,58 (1) %
same,"percentage of control metabolism, 7-HFC glucuronidation",[3]; inhibitor 200 μM,53 (1) %
same,"% of control metabolism (SD, n = 3), 7-HFC glucuronidation",[3]; inhibitor 200 μM,53 (1) %
same,"percentage of control metabolism, 7-HFC glucuronidation",[3]; inhibitor 500 μM,52 (1) %
same,"% of control metabolism (SD, n = 3), 7-HFC glucuronidation",[3]; inhibitor 500 μM,"52 (1), % and 62 (1) %"
same,"inhibition of raloxifene glucuronidation, in words",UGT1A9; UGT1A9,good inhibitor
same,"activity at 15 min, 10 µM","UGT1A9; formation of glucuronide G1, % of control metabolism, raloxifene G1, UGT1A9, inhibitor 10 μM",59%
same,"activity at 15 min, 25 µM","UGT1A9; formation of glucuronide G1, % of control metabolism, raloxifene G1, UGT1A9, inhibitor 25 μM",45%
same,"activity at 15 min, 50 µM","UGT1A9; formation of glucuronide G1, % of control metabolism, raloxifene G1, UGT1A9, inhibitor 50 μM",26%
same,"activity at 15 min, 10 µM","UGT1A9; formation of glucuronide G2, % of control metabolism, raloxifene G2, UGT1A9, inhibitor 10 μM",56%
same,"activity at 15 min, 25 µM","UGT1A9; formation of glucuronide G2, % of control metabolism, raloxifene G2, UGT1A9, inhibitor 25 μM",39%
same,"activity at 15 min, 50 µM","UGT1A9; formation of glucuronide G2, % of control metabolism, raloxifene G2, UGT1A9, inhibitor 50 μM",24%
same,"Inhibition of raloxifene glucuronidation, UGT1A9, second line per inhibitor (G2)",UGT1A9; inhibitor 5 μM,85 (5)
same,"Inhibition of raloxifene glucuronidation, UGT1A9, second line per inhibitor (G2)",UGT1A9; inhibitor 10 μM,56 (3)
same,"Inhibition of raloxifene glucuronidation, UGT1A9, second line per inhibitor (G2)",UGT1A9; inhibitor 25 μM,39 (2)
same,"Inhibition of raloxifene glucuronidation, UGT1A9, second line per inhibitor (G2)",UGT1A9; inhibitor 50 μM,24 (2)
